Results as given in ChEMBL document CHEMBL5537110, “SIRT1-dependent mitochondrial biogenesis supports therapeutic effects of 4-butyl-polyhydroxybenzophenone compounds against NAFLD” (Eur J Med Chem, 2023).
Calls of active or inactive are those of the source. No cut-off for these calls is given here.

What was measured:
HepG2 [1] = test: Inhibition of oxidative stress in 40% FBS-induced steatosis human HepG2 cells model assessed as reduction in mitochondrial ROS production incubated with compound for 24 hrs followed by replacement with steatosis inducing DMEM with 40% FBS medium by MitoSOX Red dye based fluorescence microscopy; assay type: functional, cell-based; settings: Mitochondria, dose 0.2-5 µM
HepG2 [2] = test: Induction of mitochondrial biogenesis in human HepG2 cells assessed as PGC1alpha protein expression incubated for 24 hrs in presence of SIRT1 inhibitor, EX527 by western blot analysis; assay type: functional, cell-based
HepG2 [3] = test: Inhibition of liver injury in 40% FBS-induced steatosis human HepG2 cells model assessed as decrease in GDH level at 0.2 to 5 uM incubated with compound for 24 hrs followed by replacement with steatosis inducing DMEM with 40% FBS medium; assay type: functional, cell-based; settings: dose 0.2-5 µM
Rattus norvegicus [4] = test: Hepatoprotective activity against high fat diet-fed NAFLD Sprague-Dawley rat model assessed as increase in serum SOD level administered intragastrically via gavage for 4 weeks; assay type: functional, organism-based; settings: dose 12.3-61.4 mg/kg, route ig
HepG2 [5] = test: Induction of SIRT1/PGC1alpha interaction in human HepG2 cells at 5 umol/L by co-immunoprecipitataion analysis; assay type: cell-based; settings: filed as activator, dose 5.0 µmol/L
Rattus norvegicus [6] = test: Hepatoprotective activity against high fat diet-fed NAFLD Sprague-Dawley rat model assessed as decrease in liver index administered intragastrically via gavage for 4 weeks; assay type: functional, organism-based; settings: dose 12.3-61.4 mg/kg, route ig
HepG2 [7] = test: Induction of mitochondrial biogenesis in human HepG2 cells assessed as NRF1 protein expression incubated for 24 hrs in presence of SIRT1 inhibitor, EX527 by western blot analysis; assay type: functional, cell-based
HepG2 [8] = test: Recovery of mitochondrial biogenesis in 40% FBS-induced steatosis human HepG2 cells model assessed as increase in PGC1alpha mRNA expression incubated for 24 hrs by qRT-PCR analysis; assay type: functional, cell-based; settings: dose 0.2-5 µM
HepG2 [9] = test: Inhibition of liver injury in 40% FBS-induced steatosis human HepG2 cells model assessed as decrease in LDH level at 0.2 to 5 uM incubated with compound for 24 hrs followed by replacement with steatosis inducing DMEM with 40% FBS medium; assay type: functional, cell-based; settings: dose 0.2-5 µM
HepG2 [10] = test: Inhibition of lipid toxicity in 40% FBS-induced steatosis human HepG2 cells model assessed as decrease in triglyceride content at 0.2 to 5 uM incubated with compound for 24 hrs followed by replacement with steatosis inducing DMEM with 40% FBS medium; assay type: functional, cell-based; settings: dose 0.2-5 µM
HepG2 [11] = test: Recovery of energy production in 40% FBS-induced steatosis human HepG2 cells model assessed as upregulation of mitochondrial ATP production incubated with compound for 24 hrs followed by replacement with steatosis inducing DMEM with 40% FBS medium by luciferase based assay; assay type: functional, cell-based; settings: Mitochondria, dose 0.2-5 µM
Rattus norvegicus [12] = test: Hepatoprotective activity against high fat diet-fed NAFLD Sprague-Dawley rat model assessed as decrease in serum triglyceride content administered intragastrically via gavage for 4 weeks; assay type: functional, organism-based; settings: dose 12.3-61.4 mg/kg, route ig
HepG2 [13] = test: Recovery of mitochondrial biogenesis in 40% FBS-induced steatosis human HepG2 cells model assessed as increase in mitochondrial COX1 protein expression incubated for 24 hrs by western blot analysis; assay type: functional, cell-based; settings: dose 0.2-5 µM
HepG2 [14] = test: Inhibition of liver injury in 40% FBS-induced steatosis human HepG2 cells model assessed as decrease in LDH level at 0.2 to 5 uM incubated in steatosis inducing DMEM with 40% FBS medium for 24 hrs followed by compound treatment; assay type: functional, cell-based; settings: dose 0.2-5 µM
HepG2 [15] = test: Recovery of mitochondrial biogenesis in 40% FBS-induced steatosis human HepG2 cells model assessed as increase in mitochondrial COX1 mRNA expression incubated for 24 hrs by qRT-PCR analysis; assay type: functional, cell-based; settings: dose 0.2-5 µM
Rattus norvegicus [16] = test: Hepatoprotective activity against high fat diet-fed NAFLD Sprague-Dawley rat model assessed as decrease in serum AST level at 12.3 to 61.4 mg/kg, IG administered via gavage for 4 weeks; assay type: functional, organism-based; settings: dose 12.3-61.4 mg/kg
Rattus norvegicus [17] = test: Hepatoprotective activity against high fat diet-fed NAFLD Sprague-Dawley rat model assessed as decrease in serum LDH level administered intragastrically via gavage for 4 weeks; assay type: functional, organism-based; settings: dose 12.3-61.4 mg/kg, route ig
Mitochondria = test: Inhibition of mitochondrial dysfunction in 40% FBS-induced steatosis human HepG2 cells model assessed as decrease in lipid vesicle droplets at 5 uM incubated for 24 hrs by transmission electron microscopy; assay type: functional
HepG2 [18] = test: Inhibition of oxidative stress in 40% FBS-induced steatosis human HepG2 cells model assessed as reduction in mitochondrial ROS production incubated in steatosis inducing DMEM with 40% FBS medium for 24 hrs followed by compound treatment by MitoSOX Red dye based fluorescence microscopy; assay type: functional, cell-based; settings: Mitochondria, dose 0.2-5 µM
HepG2 [19] = test: Recovery of mitochondrial biogenesis in 40% FBS-induced steatosis human HepG2 cells model assessed as increase in TFAM mRNA expression incubated for 24 hrs by qRT-PCR analysis; assay type: functional, cell-based; settings: dose 0.2-5 µM
HepG2 [20] = test: Inhibition of liver injury in 40% FBS-induced steatosis human HepG2 cells model assessed as increase in liver protection index by measuring increase in GSH level at 0.2 to 5 uM incubated in steatosis inducing DMEM with 40% FBS medium for 24 hrs followed by compound treatment; assay type: functional, cell-based; settings: dose 0.2-5 µM
HepG2 [21] = test: Recovery of mitochondrial activity in 40% FBS-induced steatosis human HepG2 cells model assessed as increase in number of mitochondria incubated in steatosis inducing DMEM with 40% FBS medium for 24 hrs followed by compound treatment by MitoTracker Green based fluorescence analysis; assay type: functional, cell-based; settings: dose 0.2-5 µM
[22] = target: T1, NAD-dependent protein deacetylase sirtuin-1 (Homo sapiens) (UniProt Q96EB6); test: Binding affinity to SIRT1 in human HepG2 cells assessed as increase in thermal stability of protein pretreated with compound for 30 mins followed by incubation at 50 degC for 3 mins by CETSA-WB analysis; assay type: cell-based; settings: filed as activator, dose 80-320 µM, time 33.0 min
T1 sequence (whole entry): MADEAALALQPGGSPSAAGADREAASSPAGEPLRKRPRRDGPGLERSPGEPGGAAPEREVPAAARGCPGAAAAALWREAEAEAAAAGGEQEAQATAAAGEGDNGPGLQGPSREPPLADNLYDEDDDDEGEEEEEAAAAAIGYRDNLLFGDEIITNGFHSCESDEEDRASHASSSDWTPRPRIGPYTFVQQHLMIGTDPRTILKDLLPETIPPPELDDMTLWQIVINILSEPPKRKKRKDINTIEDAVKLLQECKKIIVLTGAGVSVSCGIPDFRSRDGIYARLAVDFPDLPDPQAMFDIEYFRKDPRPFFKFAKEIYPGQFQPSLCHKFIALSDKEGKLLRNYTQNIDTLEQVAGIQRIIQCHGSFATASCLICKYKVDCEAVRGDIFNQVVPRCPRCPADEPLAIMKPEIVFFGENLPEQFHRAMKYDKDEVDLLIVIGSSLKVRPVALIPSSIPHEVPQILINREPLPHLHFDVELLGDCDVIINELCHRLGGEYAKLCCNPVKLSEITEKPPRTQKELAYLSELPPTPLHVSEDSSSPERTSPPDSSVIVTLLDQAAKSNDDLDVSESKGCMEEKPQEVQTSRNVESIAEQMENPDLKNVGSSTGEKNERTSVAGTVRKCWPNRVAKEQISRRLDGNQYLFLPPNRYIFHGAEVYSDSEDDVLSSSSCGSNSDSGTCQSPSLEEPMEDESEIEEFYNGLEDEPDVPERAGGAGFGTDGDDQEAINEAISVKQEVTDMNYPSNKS

Which results are given for `CC(C)(C)c1ccc(C(=O)c2ccc(O)c(O)c2)cc1`?
inhibition (HepG2 [1]): Dose-Dependent Effect; Activity (HepG2 [2]): inactive; inhibition (HepG2 [3]): Active; Activity (Rattus norvegicus [4]): Active; Activity (HepG2 [5]): Active; Activity (Rattus norvegicus [6]): Dose-Dependent Effect; Activity (HepG2 [7]): inactive; Activity (HepG2 [8]): Dose-Dependent Effect; inhibition (HepG2 [9]): Active; inhibition (HepG2 [10]): Active; Activity (HepG2 [11]): Dose-Dependent Effect; Activity (Rattus norvegicus [12]): Dose-Dependent Effect; Activity (HepG2 [13]): Dose-Dependent Effect; inhibition (HepG2 [14]): Active; Activity (HepG2 [15]): Dose-Dependent Effect; Activity (Rattus norvegicus [16]): Active; Activity (Rattus norvegicus [17]): Active; inhibition (Mitochondria): Active; inhibition (HepG2 [18]): Dose-Dependent Effect; Activity (HepG2 [19]): Dose-Dependent Effect; inhibition (HepG2 [20]): Active; Activity (HepG2 [21]): Dose-Dependent Effect; Activity [22]: Dose-Dependent Effect
